The subject of data set [1] is M. tuberculosis H37Rv ATCC 27294. Nature of the data set: In vitro growth inhibition assay, BACTEC 460 TB system. The conditions noted are these: final concentration 6.25 μg/ml. Set-up: key: +: If ΔGI of test vial is less than that of the control vial the culture was sensitive to the test compound. The data set is classed as cell-based, Mycobacterium tuberculosis.
The subject of another data set is M. tuberculosis 27294. Nature of the data set: In vitro agar dilution assay (MIC), reference strain. The conditions noted are these: for MIC: Mycobacterium tuberculosis, 27294, Table I, read-out: MIC (μg/ml) against M. tuberculosis-27294; for MIC (μg/ml) against M. tuberculosis-27294: Table I. Format: cell-based, Mycobacterium tuberculosis. For orientation: In agar dilution the substance is mixed into plates at graded concentrations.

Data set [2] has as its system M. tuberculosis clinical isolates, sensitive. Nature of the data set: microbe, parasite or virus in culture. Format: cell-based, Mycobacterium tuberculosis. As to conditions: for MIC: Mycobacterium tuberculosis, read-out: MIC (μg/ml) against Clinical isolates Sensitive; for MIC (μg/ml) against Clinical isolates Sensitive: Table I, agar dilution.

Values after ≈ are worked out from the molar mass of the structure shown.

By melting point is commonly meant the temperature of the solid-liquid transition. For `Cc1cc(CN2CCN(C(c3ccccc3)c3ccccc3)CC2)c(-c2ccc(Cl)cc2)n1-c1ccc(F)cc1F`, the melting point lay in the range of 76 to 78 °C.
Still for that read-out and setting: next, `Cc1cc(CN2CCN(c3ccccn3)CC2)c(-c2ccccc2)n1-c1ccccn1`: 135 to 137 °C.
Take `COc1ccccc1N1CCN(Cc2cc(-c3ccc(Cl)cc3)n(-c3ccc(F)cc3F)c2C)CC1` [compound 45, 1-{[1-(2,4-difluorophenyl)-5-(4-chlorophenyl)-2-methylpyrrol-3-yl]methyl}-4-(2-methoxyphenyl)piperazine]: the “Growth inhibition of M. tuberculosis 27294” value (“Growth inhibition” below) in data set [1] is on record as “+”. The MIC in the data set on M. tuberculosis 27294 is 0.5 µg/mL (≈ 0.984 µM); in data set [2], 0.5 to 2 µg/mL (≈ 0.984 to 3.94 µM).
For `Cc1c(CN2CCN(c3cccc(C(F)(F)F)c3)CC2)cc(-c2ccc(Cl)cc2)n1-c1ccc(F)cc1F` [compound 46, 1-{[1-(2,4-difluorophenyl)-5-(4-chlorophenyl)-2-methylpyrrol-3-yl]methyl}-4-(3-trifluoromethylphenyl)piperazine] the same measures were “+”, 2 µg/mL (≈ 3.66 µM) and 2 to 4 µg/mL (≈ 3.66 to 7.33 µM).
For `Cc1c(CN2CCN(c3ccccn3)CC2)cc(-c2ccc(Cl)cc2)n1-c1ccc(F)cc1F` [compound 47, 1-{[1-(2,4-difluorophenyl)-5-(4-chlorophenyl)-2-methylpyrrol-3-yl]methyl}-4-(2-pyridyl)piperazine] the same measures were “+”, 0.25 µg/mL (≈ 0.522 µM) and 0.25 to 1 µg/mL (≈ 0.522 to 2.09 µM).
Turning to `Cc1c(CN2CCN(C(c3ccccc3)c3ccccc3)CC2)cc(-c2ccc(Cl)cc2)n1-c1ccc(F)cc1F` [compound 48, 1-{[1-(2,4-difluorophenyl)-5-(4-chlorophenyl)-2-methylpyrrol-3-yl]methyl}-4-(4-diphenylmethyl)piperazine], the “Growth inhibition” value in data set [1] is reported as “+”. Also, in the data set with M. tuberculosis 27294, the “MIC (μg/ml) against M. tuberculosis-27294” value is over 16.0 µg/mL. Besides, the “MIC (μg/ml) against Clinical isolates Sensitive” value in data set [2] was over 16.0 µg/mL.
Consider `Cc1c(CN2CCN(Cc3ccc4c(c3)OCO4)CC2)cc(-c2ccc(Cl)cc2)n1-c1ccc(F)cc1F` [compound 50, 5-[(4-{[1-(2,4-difluorophenyl)-5-(4-chlorophenyl)-2-methylpyrrol-3-yl]-methyl}-piperazinyl)methyl]-2H-benzo[d]1,3-dioxolane], for which the “Growth inhibition” value in data set [1] is reported as “+”. In the data set with M. tuberculosis 27294, the “MIC (μg/ml) against M. tuberculosis-27294” value was determined as 2.0 µg/mL (≈ 3.73 µM). Besides, the “MIC (μg/ml) against Clinical isolates Sensitive” value in data set [2] was 2.0 to 4.0 µg/mL.
As for `COc1ccccc1N1CCN(Cc2cc(-c3ccccc3)n(-c3ccc(F)cc3F)c2C)CC1` [compound 52, 1-{[1-(2,4-difluorophenyl)-2-methyl-5-phenylpyrrol-3-yl]methyl}-4-(2-methoxyphenyl)piperazine], in data set [1], the “Growth inhibition” value was “+”. For the same compound, the MIC (with M. tuberculosis 27294; in data set [2]) was 8 µg/mL (≈ 16.9 µM) each time.
Turning to `Cc1c(CN2CCN(c3ccccn3)CC2)cc(-c2ccccc2)n1-c1ccc(F)cc1F` [compound 54, 1-{[1-(2,4-difluorophenyl)-2-methyl-5-phenylpyrrol-3-yl]methyl}-4-(2-pyridyl) piperazine], the melting point lay within 144 to 146 °C. Also, the “Growth inhibition” value in data set [1] is given as “+”. For the same compound, the MIC with M. tuberculosis 27294 came to 2 µg/mL (≈ 4.5 µM). Also, the MIC in data set [2] came out at 4 µg/mL (≈ 9 µM).
For `COc1ccccc1N1CCN(Cc2cc(C)n(-c3ccc(F)cc3F)c2-c2ccccc2)CC1` [compound 56, 1-{[1-(2,4-difluorophenyl)-5-methyl-2-phenylpyrrol-3-yl]methyl}-4-(2-methoxyphenyl) piperazine] the same measures were 60 to 62 °C, “+”, 8 µg/mL (≈ 16.9 µM) and 8 µg/mL (≈ 16.9 µM).
As for `Cc1cc(CN2CCN(c3cccc(C(F)(F)F)c3)CC2)c(-c2ccccc2)n1-c1ccc(F)cc1F` [compound 57, 1-{[1-(2,4-difluorophenyl)-5-methyl-2-phenylpyrrol-3-yl]methyl}-4-(3-trifluoromethylphenyl)piperazine], the “Growth inhibition” value in data set [1] is “+”. Also, the MIC (in the data set on M. tuberculosis 27294; in data set [2]) was over 16 µg/mL in each case.
On to `Cc1cc(CN2CCN(c3ccccn3)CC2)c(-c2ccccc2)n1-c1ccc(F)cc1F` [compound 58, 1-{[1-(2,4-difluorophenyl)-5-methyl-2-phenylpyrrol-3-yl]methyl}-4-(2-pyridyl) piperazine], for which the “Growth inhibition” value in data set [1] is recorded as “+”. Besides, the MIC (in the data set with M. tuberculosis 27294; in data set [2]) was 8 µg/mL (≈ 18 µM) each time.
Take `Cc1c(CN2CCN(c3cccc(C(F)(F)F)c3)CC2)cc(-c2ccc(Cl)cc2)n1-c1cccc2ccccc12` [compound 60, 1-{[5-(4-chlorophenyl)-2-methyl-1-naphthylpyrrol-3-yl]methyl}-4-(3-trifluoromethylphenyl)piperazine]: the “Growth inhibition” value in data set [1] was “+”. Further, the “MIC (μg/ml) against M. tuberculosis-27294” value against M. tuberculosis 27294 was 4.0 µg/mL (≈ 7.14 µM). Further, in data set [2], the “MIC (μg/ml) against Clinical isolates Sensitive” value was in the range of 2.0 to 8.0 µg/mL.
Regarding `Cc1c(CN2CCN(c3ccccn3)CC2)cc(-c2ccc(Cl)cc2)n1-c1cccc2ccccc12` [compound 61, 1-{[5-(4-chlorophenyl)-2-methyl-1-naphthylpyrrol-3-yl]methyl}-4-(2-pyridyl) piperazine], the “Growth inhibition” value in data set [1] is recorded as “+”. The “MIC (μg/ml) against M. tuberculosis-27294” value against M. tuberculosis 27294 was found to be 4.0 µg/mL (≈ 8.11 µM). In addition, the “MIC (μg/ml) against Clinical isolates Sensitive” value in data set [2] lay within 4.0 to 8.0 µg/mL.
For `Cc1c(CN2CCN(Cc3ccc4c(c3)OCO4)CC2)cc(-c2ccc(Cl)cc2)n1-c1cccc2ccccc12` [compound 62, 5-[(4-{[5-(4-chlorophenyl)-2-methyl-1-naphthylpyrrol-3-yl]methyl}-piperazinyl)methyl]-2H-benzo[d]1,3-dioxolane] the same measures were “+”, over 16.0 µg/mL and over 16.0 µg/mL.
Consider `COc1ccccc1N1CCN(Cc2cc(C)n(-c3cccc4ccccc34)c2-c2ccc(Cl)cc2)CC1` [compound 63, 1-{[2-(4-chlorophenyl)-5-methyl-1-naphthylpyrrol-3-yl]methyl}-4-(2-methoxyphenyl)piperazine], for which the “Growth inhibition” value in data set [1] is reported as “+”. Besides, the “MIC (μg/ml) against M. tuberculosis-27294” value in the data set on M. tuberculosis 27294 was determined as 8.0 µg/mL (≈ 15.3 µM). Moreover, the “MIC (μg/ml) against Clinical isolates Sensitive” value in data set [2] was in the range of 4.0 to 8.0 µg/mL.
Take `Cc1c(CN2CC[S+]([O-])CC2)cc(-c2ccccc2)n1-c1ccccc1` [compound 87, 4-[(2-methyl-1,5-diphenylpyrrol-3-yl)methyl]1,4-thiazaperhydroin-1-one]: the “Growth inhibition” value in data set [1] is given as “+”. In addition, in the data set with M. tuberculosis 27294, the “MIC (μg/ml) against M. tuberculosis-27294” value turned out to be 8.0 µg/mL (≈ 21.9 µM). Moreover, the “MIC (μg/ml) against Clinical isolates Sensitive” value in data set [2] was 8.0 to 16.0 µg/mL.
Consider `Cc1c(CN2CCS(=O)(=O)CC2)cc(-c2ccccc2)n1-c1ccccc1` [compound 88], for which, in data set [1], the “Growth inhibition” value is “+”. Besides, the “MIC (μg/ml) against M. tuberculosis-27294” value in the data set on M. tuberculosis 27294 was found to be 0.5 µg/mL (≈ 1.31 µM). In data set [2], the “MIC (μg/ml) against Clinical isolates Sensitive” value is 1.0 to 4.0 µg/mL.
For `Cc1c(CN2CCSCC2)cc(-c2ccc(Cl)cc2)n1NC(=O)c1ccncc1` [compound 89, N-[5-(4-chlorophenyl)-2-methyl-3-(1,4-thiazaperhydroin-4-ylmethyl)pyrrolyl]-4-pyridylcarboxamide] the same measures were “+”, 1.0 µg/mL (≈ 2.34 µM) and 2.0 to 8.0 µg/mL.
Turning to `CCC(CO)n1c(-c2ccccc2)cc(CN2CCSCC2)c1C` (stereo not shown) [compound 91, 2-[2-methyl-5-phenyl-3-(1,4-thiazaperhydroin-4-ylmethyl)pyrrolyl]butan-1-ol], the “Growth inhibition” value in data set [1] is recorded as “+”. For the same compound, the “MIC (μg/ml) against M. tuberculosis-27294” value in the data set on M. tuberculosis 27294 was 4.0 µg/mL (≈ 11.6 µM). The “MIC (μg/ml) against Clinical isolates Sensitive” value in data set [2] lay within 4.0 to 8.0 µg/mL.

For the origin of these results see patent US7763602B2, “Pyrrole derivatives as antimycobacterial compounds” (priority 2002, dated 2010).
